Tests used:
Magnaporthe grisea = type: in vivo; details: rice (Nihonbare), flowable formulation 500 ppm foliage application; five days after the inoculation
Plasmopara viticola = test: Treating grape downy mildew, foliage application; type: in vivo; details: grape (Berry-A), infected nursery plants, flowable formulation 500 ppm foliage application after inoculation (curative)
Experimental: Test Regarding Effects of Treating Grape Downy Mildew (Plasmopara viticola)
A plastic pot was filled with sandy soil, and grape (variety: Berry-A) was then disseminated. The grape plants were allowed to grow in a green house for 40 days. A water suspension of zoosporangium of Plasmopara viticola was inoculated to the aforementioned pot by spaying it. Thereafter, the grape plants were left at 23° C. at a high humidity for 1 day, and they were then air-dried, so as to obtain grape downy mildew-infected nursery plants. The aforementioned flowable formulation comprising compound 189 was set at a predetermine concentration (500 ppm) by diluting with water, and it was then subjected to foliage application such that it could be sufficiently attached to the leaves of the aforementioned nursery grape plants. After completion of the foliage application, the plants were subjected to air-drying, and they were then left at 23° C. in a green house for 5 days. Thereafter, the plants were further left at 23° C. at a high humidity for 1 day. Thereafter, the infected areas thereof were examined.

Row | Compound | infected areas of treated plants relative to infected areas of untreated plants (Magnaporthe grisea) [%] | infected areas of treated plants relative to infected areas of untreated plants (Plasmopara viticola) [%]
1 | O=C(NCc1ccc(OC(F)F)cc1)c1ccc2ncccc2c1 [Compound 56] | ≤ 30 | 
2 | Cc1ccc(CNC(=O)c2ccc3ncsc3c2)cc1 [Compound 189] |  | ≤ 10
